This is an account of results in patent US8569298B2, “Pyridine compounds” (Astrazeneca AB, priority 2008, dated 2013).

The target of this assay is T1, FAK enzyme (6 His tagged kinase domain, GenBank NP—722560) (Homo sapiens, UniProt Q05397).
T1 construct: 6 His; made in house; host or cells: insect cell culture infected with baculovirus
Nature of the assay: In vitro enzyme assay (a): sandwich ELISA of FAK tyrosine kinase activity on polyGAT peptide, TMB colorimetric endpoint. The class given is biochemical. The settings on record: in vitro Enzyme Assay test (a); ATP at Km; geometric mean of n > 1 measurements, values marked * tested once. In outline:
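Recombinant His-tagged FAK kinase domain (baculovirus/insect cells) phosphorylated plate-coated polyGAT with ATP at Km, MgCl2/MnCl2, HEPES pH 7.4, 25 min at room temperature before EDTA stop. Phosphotyrosine detected by HRP-4G10 antibody and TMB absorbance at 450 nm; IC50 from 12-point curve anchored to DMSO and staurosporine controls.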
For orientation: In an ELISA, binding on a coated surface is turned into a signal by an enzyme label.

T1 sequence (Q05397 422-680 limits assumed): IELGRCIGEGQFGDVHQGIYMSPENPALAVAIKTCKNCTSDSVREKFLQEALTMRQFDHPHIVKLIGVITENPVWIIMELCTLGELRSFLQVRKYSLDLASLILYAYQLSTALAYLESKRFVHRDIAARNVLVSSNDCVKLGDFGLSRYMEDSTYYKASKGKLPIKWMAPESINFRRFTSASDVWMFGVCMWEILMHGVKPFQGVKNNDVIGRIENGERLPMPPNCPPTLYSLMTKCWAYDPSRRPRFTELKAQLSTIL

In turn, `CNC(=O)c1ccccc1Nc1cc(Nc2ccnn2C)ncc1C(F)(F)F` [Example 8.01, N-methyl-2-[[2-[(2-methylpyrazol-3-yl)amino]-5-(trifluoromethyl)-4-pyridyl]amino]benzamide] registered an IC50 of 6 nM.

The compound `CNC(=O)c1ccccc1Nc1cc(Nc2cc(C)nn2C)ncc1C(F)(F)F` [Example 8.02, 2-[[2-[(2,5-dimethylpyrazol-3-yl)amino]-5-(trifluoromethyl)-4-pyridyl]amino]-N-methyl-benzamide] registered an IC50 of 8 nM.

In turn, `CNC(=O)c1ccccc1Nc1cc(Nc2cnn(C)c2C)ncc1C(F)(F)F` [Example 8.03, 2-[[2-[(1,5-dimethylpyrazol-4-yl)amino]-5-(trifluoromethyl)-4-pyridyl]amino]-N-methyl-benzamide] came in with an IC50 of 6 nM.

Take `CCn1cc(Nc2cc(Nc3ccccc3C(=O)NC)c(C(F)(F)F)cn2)c(C)n1` [Example 8.04, 2-[[2-[(1-ethyl-3-methyl-pyrazol-4-yl)amino]-5-(trifluoromethyl)-4-pyridyl]amino]-N-methyl-benzamide]: the IC50 was determined as 6 nM.

For `CCn1cc(Nc2cc(Nc3ccccc3C(=O)NC)c(C(F)(F)F)cn2)cn1` [Example 8.05, 2-[[2-[(1-ethylpyrazol-4-yl)amino]-5-(trifluoromethyl)-4-pyridyl]amino]-N-methyl-benzamide], the IC50 stood at 14 nM.

On to `CCn1ccc(Nc2cc(Nc3ccccc3C(=O)NC)c(C(F)(F)F)cn2)n1` [Example 8.06, 2-[[2-[(1-ethylpyrazol-3-yl)amino]-5-(trifluoromethyl)-4-pyridyl]amino]-N-methyl-benzamide], for which half-maximal inhibition (IC50) required 11 nM. This IC50 and that of the compound before are within 1.5-fold of each other.

`CNC(=O)c1ccccc1Nc1cc(Nc2cc(C3CC3)nn2C)ncc1C(F)(F)F` [Example 8.07, 2-[[2-[(5-cyclopropyl-2-methyl-pyrazol-3-yl)amino]-5-(trifluoromethyl)-4-pyridyl]amino]-N-methyl-benzamide]: the IC50 amounted to 26 nM. Compared with the last compound, the IC50 is about 2.4-fold higher.

Compound `CCn1nccc1Nc1cc(Nc2ccccc2C(=O)NC)c(C(F)(F)F)cn1` [Example 8.08, 2-[[2-[(2-ethylpyrazol-3-yl)amino]-5-(trifluoromethyl)-4-pyridyl]amino]-N-methyl-benzamide] registered an IC50 of 10 nM.

Compound `CNC(=O)c1ccccc1Nc1cc(Nc2cnn(CC(C)C)c2)ncc1C(F)(F)F` [Example 8.09, 2-[[2-[(1-isobutylpyrazol-4-yl)amino]-5-(trifluoromethyl)-4-pyridyl]amino]-N-methyl-benzamide] yielded an IC50 of 69 nM.

`CNC(=O)c1ccccc1Nc1cc(Nc2c(C)nn(C)c2C)ncc1C(F)(F)F` [Example 8.10, N-methyl-2-[[5-(trifluoromethyl)-2-[(1,3,5-trimethylpyrazol-4-yl)amino]-4-pyridyl]amino]benzamide] registered an IC50 of 13 nM.

As to `CNC(=O)c1ccccc1Nc1cc(Nc2cnn(C(C)C)c2)ncc1C(F)(F)F` [Example 8.11, 2-[[2-[(1-isopropylpyrazol-4-yl)amino]-5-(trifluoromethyl)-4-pyridyl]amino]-N-methyl-benzamide], the IC50 turned out to be 34 nM.

`CNC(=O)c1ccccc1Nc1cc(Nc2cn(C)nc2C(F)(F)F)ncc1C(F)(F)F` [Example 8.12, N-methyl-2-[[2-[[1-methyl-3-(trifluoromethyl)pyrazol-4-yl]amino]-5-(trifluoromethyl)-4-pyridyl]amino]benzamide] showed an IC50 of 18 nM.

`CNC(=O)c1cc(OC)ccc1Nc1cc(Nc2cn(C)nc2C)ncc1C(F)(F)F` [Example 10.01, 2-[[2-[(1,3-dimethylpyrazol-4-yl)amino]-5-(trifluoromethyl)-4-pyridyl]amino]-5-methoxy-N-methyl-benzamide] showed an IC50 of 8 nM. Compared with the last compound, the IC50 is about 2.2-fold lower.

`CNC(=O)c1ccc(C)cc1Nc1cc(Nc2cn(C)nc2C)ncc1C(F)(F)F` [Example 10.02, 2-[[2-[(1,3-Dimethylpyrazol-4-yl)amino]-5-(trifluoromethyl)-4-pyridyl]amino]-N,4-dimethyl-benzamide] displayed an IC50 of 13 nM. This IC50 is about 1.6-fold higher than that of the compound before.

The compound `CNC(=O)c1cc(C)ccc1Nc1cc(Nc2cn(C)nc2C)ncc1C(F)(F)F` [Example 10.03, 2-[[2-[(1,3-dimethylpyrazol-4-yl)amino]-5-(trifluoromethyl)-4-pyridyl]amino]-N,5-dimethyl-benzamide] came in with an IC50 of 2 nM.

In the case of `CNC(=O)c1ccc(OC)cc1Nc1cc(Nc2cn(C)nc2C)ncc1C(F)(F)F` [Example 10.04, 2-[[2-[(1,3-dimethylpyrazol-4-yl)amino]-5-(trifluoromethyl)-4-pyridyl]amino]-4-methoxy-N-methyl-benzamide], it took 53 nM to reach half-maximal inhibition (IC50).

The compound `CNC(=O)c1ccc(F)cc1Nc1cc(Nc2cn(C)nc2C)ncc1C(F)(F)F` [Example 10.05, 2-[[2-[(1,3-dimethylpyrazol-4-yl)amino]-5-(trifluoromethyl)-4-pyridyl]amino]-4-fluoro-N-methyl-benzamide] showed an IC50 of 9 nM. Against the preceding compound, the IC50 is about 5.9-fold lower.

With `CNC(=O)c1cccc(F)c1Nc1cc(Nc2cn(C)nc2C)ncc1C(F)(F)F` [Example 10.06, 2-[[2-[(1,3-dimethylpyrazol-4-yl)amino]-5-(trifluoromethyl)-4-pyridyl]amino]-3-fluoro-N-methyl-benzamide], the IC50 is 10 nM. This IC50 and that of the compound before are within 1.5-fold of each other.

In turn, `CNC(=O)c1cc(Cl)ccc1Nc1cc(Nc2cn(C)nc2C)ncc1C(F)(F)F` [Example 10.07, 5-chloro-2-[[2-[(1,3-dimethylpyrazol-4-yl)amino]-5-(trifluoromethyl)-4-pyridyl]amino]-N-methyl-benzamide] registered an IC50 of 14 nM. The IC50 values of the last two compounds are within 1.5-fold of each other.

Consider `CONC(=O)c1ccccc1Nc1cc(Nc2cn(C)nc2C)ncc1C(F)(F)F` [Example 10.08, 2-[[2-[(1,3-dimethylpyrazol-4-yl)amino]-5-(trifluoromethyl)-4-pyridyl]amino]-N-methoxy-benzamide], for which the half-maximal inhibitory concentration (IC50) worked out at 5 nM.

With `CNC(=O)c1ccc(Cl)cc1Nc1cc(Nc2cn(C)nc2C)ncc1C(F)(F)F` [Example 10.09, 4-chloro-2-[[2-[(1,3-dimethylpyrazol-4-yl)amino]-5-(trifluoromethyl)-4-pyridyl]amino]-N-methyl-benzamide], the IC50 was 7 nM.

Regarding `CNC(=O)c1cc(SC)ccc1Nc1cc(Nc2cn(C)nc2C)ncc1C(F)(F)F` [Example 10.10, 2-[[2-[(1,3-dimethylpyrazol-4-yl)amino]-5-(trifluoromethyl)-4-pyridyl]amino]-N-methyl-5-methylsulfanyl-benzamide], the IC50 worked out at 11 nM.

`CNC(=O)c1cc(N2CCOCC2)ccc1Nc1cc(Nc2cn(C)nc2C)ncc1C(F)(F)F` [Example 10.11, 2-[[2-[(1,3-dimethylpyrazol-4-yl)amino]-5-(trifluoromethyl)-4-pyridyl]amino]-N-methyl-5-morpholino-benzamide] showed an IC50 of 26 nM.

As to `CNC(=O)c1ccc(S(C)(=O)=O)cc1Nc1cc(Nc2cn(C)nc2C)ncc1C(F)(F)F` [Example 10.13, 2-[[2-[(1,3-dimethylpyrazol-4-yl)amino]-5-(trifluoromethyl)-4-pyridyl]amino]-N-methyl-4-methylsulfonyl-benzamide], it took 462 nM to reach half-maximal inhibition (IC50).

In the case of `CNC(=O)c1c(Nc2cc(Nc3cc(C)nn3C)ncc2C(F)(F)F)cccc1OC` [Example 11.01, 2-[[2-[(2,5-dimethylpyrazol-3-yl)amino]-5-(trifluoromethyl)-4-pyridyl]amino]-6-methoxy-N-methyl-benzamide], the IC50 was found to be 5 nM.

Regarding `CNC(=O)c1nn(C)cc1Nc1cc(Nc2cccc3c2C(=O)N(C)CC3)c(Cl)cn1` [Example 12.01, 4-[[5-chloro-4-[(2-methyl-1-oxo-3,4-dihydroisoquinolin-8-yl)amino]-2-pyridyl]amino]-N,1-dimethyl-pyrazole-3-carboxamide], the half-maximal inhibitory concentration (IC50) came out at 915 nM.

`CN(C)C(=O)c1nn(C)cc1Nc1cc(Nc2cccc3c2C(=O)N(C)CC3)c(Cl)cn1` [Example 12.02, 4-[[5-chloro-4-[(2-methyl-1-oxo-3,4-dihydroisoquinolin-8-yl)amino]-2-pyridyl]amino]-N,N,1-trimethyl-pyrazole-3-carboxamide] came in with an IC50 of 1360 nM. This IC50 and that of the compound before are within 1.5-fold of each other.

As for `Cc1n[nH]cc1Nc1cc(Nc2cccc3c2C(=O)N(C)CC3)c(Cl)cn1` [Example 12.03, 8-[[5-chloro-2-[(3-methyl-1H-pyrazol-4-yl)amino]-4-pyridyl]amino]-2-methyl-3,4-dihydroisoquinolin-1-one], the IC50 was 2 nM. This IC50 lies about 680-fold lower than the previous one.

The compound `COCc1nn(C)cc1Nc1cc(Nc2cccc3c2C(=O)N(C)CC3)c(Cl)cn1` [Example 12.04, 8-[[5-chloro-2-[[3-(methoxymethyl)-1-methyl-pyrazol-4-yl]amino]-4-pyridyl]amino]-2-methyl-3,4-dihydroisoquinolin-1-one] displayed an IC50 of 22 nM.

In the case of `CN1CCc2cccc(Nc3cc(Nc4cn(C)nc4C#N)ncc3Cl)c2C1=O` [Example 12.05, 4-[[5-chloro-4-[(2-methyl-1-oxo-3,4-dihydroisoquinolin-8-yl)amino]-2-pyridyl]amino]-1-methyl-pyrazole-3-carbonitrile], half-maximal inhibition (IC50) was put at 20 nM.

`COc1nn(C)cc1Nc1cc(Nc2cccc3c2C(=O)N(C)CC3)c(Cl)cn1` [Example 12.06, 8-[[5-chloro-2-[(3-methoxy-1-methyl-pyrazol-4-yl)amino]-4-pyridyl]amino]-2-methyl-3,4-dihydroisoquinolin-1-one] came in with an IC50 of 8 nM. This IC50 is about 2.5-fold lower than that of the compound before.

Compound `CNC(=O)c1ccccc1Nc1cc(Nc2cn(C)nc2C(=O)NC)ncc1C(F)(F)F` [Example 12.07, N,1-dimethyl-4-[[4-[[2-(methylcarbamoyl)phenyl]amino]-5-(trifluoromethyl)-2-pyridyl]amino]pyrazole-3-carboxamide] displayed an IC50 of 171 nM.

Regarding `CNC(=O)c1ccccc1Nc1cc(Nc2cn(C)nc2C(=O)N(C)C)ncc1C(F)(F)F` [Example 12.08, N,N,1-trimethyl-4-[[4-[[2-(methylcarbamoyl)phenyl]amino]-5-(trifluoromethyl)-2-pyridyl]amino]pyrazole-3-carboxamide], half-maximal inhibition (IC50) was put at 482 nM. This IC50 is about 2.8-fold higher than that of the compound before.

One may read the IC50 as the concentration that gives 50% inhibition.
